Source: patent US20250352555A1, “METHOD OF INCREASING IMMUNE CELL ACTIVATION AND/OR TREATING CANCER USING DIBENZOXAZEPINONES” (VASCULAR THERAPEUTICS PTY LTD, priority 2022, published 2025)
“And” between values parts separate entries of the source, which are not always exact repeats. Equal values may be shown once.

Test system: Jurkat T cells
Experiment: RNA-seq of Jurkat T cells
Type: cell-based, human
Protocol: RNA-seq and bioinformatics analysis. Jurkat T cells were grown to confluence in 100 mm plates in complete medium and incubated with 10 μM BT2 or vehicle for 4 h. Total RNA was extracted using the RNeasy Mini Kit (Qiagen, cat. no. 74004) with modification. Briefly, cells were washed twice with pre-cooled 1×PBS and TRIzol reagent (Thermo Fisher Scientific cat. no. 15596026) was added to lyse the cells. Chloroform was added to the mixture before microfuge centrifugation at 13000 rpm for 15 min at 4° C. The upper aqueous layer containing total RNA was transferred to fresh microtubes, and isopropanol was added and loaded into RNeasy columns. Columns were washed with buffers RW1 and RPE. Total RNA was eluted from the column using ribonuclease-free water. Samples were submitted to the UNSW Ramaciotti Centre for Genomics for TruSeq Stranded mRNA-seq preparation and sequencing by One NextSeq 500 1×75 bp high-output flow cell with data output up to 400 M reads. Quality control of samples was set at >80% higher than Q30 at 1×75 bp.
RNA-seq reads were first assessed for quality using the tool FastQC (v0.11.8) www.bioinformatics.babraham.ac.uk/projects/fastqc/). The tool Salmon was used for quantifying transcript abundance from RNA-seq reads (Patro et al., 2017). The R package DESeq2 that incorporates a method for differential analysis of count data was then used to identify differentially expressed genes across specific comparisons (Love et al., 2014). This package was also used to perform principal component analysis. […] The ggplot2 R package was used to prepare bar plots, scatter plots, and density plots. The pheatmap R package was used to generate distance matrices, and clustered heatmaps. DESeq2 output was used to generate a ranked list for input into GSEA Pre-ranked (v6.0.12, Broad Institute) (Subramanian et al., 2005) for pathway analysis against the Curated (Canonical Pathway), Gene Ontology, and Hallmarks gene collections from MSigDb (Liberzon et al., 2015; Liberzon et al., 2011). Ranked scores were calculated by multiplying the sign of the log 2 fold change by the log 10 transformed adjusted p value. […] All immune response related gene sets were selected for display.
To gain insights into BT2's mode of action we conducted next generation RNA sequencing (RNA-seq) with extracts of Jurkat T cells exposed to 10 μM BT2 for 4 h.

CCOC(=O)Nc1ccc2c(c1)C(=O)N(CC)c1ccccc1O2 [BT2, (10-ethyl-11-oxo-10,11-dihydro-dibenzo[b,f][1,4]oxazepin-2-yl)-carbamic acid ethyl ester]
ABCA4 gene expression, BT2 (10 μM BT2, 4 h, 3 replicates): 96.05 and 85.74 and 106.5
ACTA2 gene expression, BT2 (10 μM BT2, 4 h, 3 replicates): 643.6 and 663.2 and 658.1
ACTG2 gene expression, BT2 (10 μM BT2, 4 h, 3 replicates): 3514 and 3448 and 3526
ADAT3 gene expression, BT2 Test 1-3 (10 μM BT2, 4 h, 3 replicates): 32.66 and 24.79 and 20.09
ADCYAP1 gene expression, BT2 (10 μM BT2, 4 h, 3 replicates): 131.6 and 132.2 and 130.6
ARHGAP29 gene expression, BT2 (10 μM BT2, 4 h, 3 replicates): 550.4 and 556.8 and 506.4
ATF3 gene expression, BT2 (10 μM BT2, 4 h, 3 replicates): 975.9 and 937 and 1003
BACH2 gene expression, BT2 (10 μM BT2, 4 h, 3 replicates): 6174.2608 and 6260 and 6009.3283
CD248 gene expression, BT2 (10 μM BT2, 4 h, 3 replicates): 284.3 and 291.3 and 307.4
CREB5 gene expression, BT2 (10 μM BT2, 4 h, 3 replicates): 179.6 and 175.6 and 152.7
DMBT1 gene expression, BT2 (10 μM BT2, 4 h, 3 replicates): 193.1 and 180.8 and 166.8
DUSP8 gene expression, BT2 (10 μM BT2, 4 h, 3 replicates): 826.1 and 821.3 and 847
ENPP1 gene expression, BT2 (10 μM BT2, 4 h, 3 replicates): 2289 and 2283 and 2244
EPAS1 gene expression, BT2 (10 μM BT2, 4 h, 3 replicates): 332.3 and 428.7 and 372.8
FAM166A gene expression, BT2 Test 1-3 (10 μM BT2, 4 h, 3 replicates): 312.2 and 298.5 and 285.3
FERMT2 gene expression, BT2 (10 μM BT2, 4 h, 3 replicates): 3161.0909 and 3299 and 3249
FLNC gene expression, BT2 (10 μM BT2, 4 h, 3 replicates): 532.1 and 474.2 and 510.4
GBP1 gene expression, BT2 (10 μM BT2, 4 h, 3 replicates): 6844 and 6940 and 6949
GBP2 gene expression, BT2 (10 μM BT2, 4 h, 3 replicates): 343.9 and 332.6 and 320.5
HIST1H2AC gene expression, BT2 Test 1-3 (10 μM BT2, 4 h, 3 replicates): 62.43 and 67.15 and 71.34
HIST1H2AG gene expression, BT2 Test 1-3 (10 μM BT2, 4 h, 3 replicates): 51.87 and 40.29 and 74.35
HIST2H2BE gene expression, BT2 Test 1-3 (10 μM BT2, 4 h, 3 replicates): 35.54 and 54.75 and 51.24
IL2RA gene expression, BT2 (10 μM BT2, 4 h, 3 replicates): 168.1 and 193.2 and 169.8
JUN gene expression, BT2 (10 μM BT2, 4 h, 3 replicates): 4079.3537 and 4087 and 4015
JUND gene expression, BT2 (10 μM BT2, 4 h, 3 replicates): 7851.3391 and 7882 and 7703
KCNMB1 gene expression, BT2 (10 μM BT2, 4 h, 3 replicates): 1036.4075 and 994.8 and 1082
MAF gene expression, BT2 Test 1-3 (10 μM BT2, 4 h, 3 replicates): 49.95 and 50.62 and 48.23
MYL4 gene expression, BT2 (10 μM BT2, 4 h, 3 replicates): 896.2 and 889.4 and 904.3
NPAS4 gene expression, BT2 (10 μM BT2, 4 h, 3 replicates): 228.6 and 253.1 and 292.4
NTN1 gene expression, BT2 (10 μM BT2, 4 h, 3 replicates): 0 and 193.2 and 146.7
PRKCE gene expression, BT2 (10 μM BT2, 4 h, 3 replicates): 1433 and 1537 and 1488
PRRT1 gene expression, BT2 Test 1-3 (10 μM BT2, 4 h, 3 replicates): 20.17 and 22.73 and 60.28
SIRPB2 gene expression, BT2 (10 μM BT2, 4 h, 3 replicates): 112.4 and 120.9 and 128.6
SPECC1L-ADORA2A gene expression, BT2 (10 μM BT2, 4 h, 3 replicates): 209.4 and 316.1 and 206
TEAD3 gene expression, BT2 (10 μM BT2, 4 h, 3 replicates): 269.9 and 243.8 and 226.1
TIMP3 gene expression, BT2 (10 μM BT2, 4 h, 3 replicates): 202.7 and 212.8 and 228.1
TUBA1A gene expression, BT2 Test 1-3 (10 μM BT2, 4 h, 3 replicates): 4998 and 5147 and 5169
TUBA1B gene expression, BT2 Test 1-3 (10 μM BT2, 4 h, 3 replicates): 50484.2833 and 49034.778 and 49379.7789
TUBA1C gene expression, BT2 Test 1-3 (10 μM BT2, 4 h, 3 replicates): 9420 and 9004 and 9493
TUBA4A gene expression, BT2 Test 1-3 (10 μM BT2, 4 h, 3 replicates): 33.62 and 39.26 and 48.23
TUBB2A gene expression, BT2 Test 1-3 (10 μM BT2, 4 h, 3 replicates): 599.4 and 644.6 and 638
TUBB3 gene expression, BT2 Test 1-3 (10 μM BT2, 4 h, 3 replicates): 651.2 and 705.6 and 639
TUBB4B gene expression, BT2 Test 1-3 (10 μM BT2, 4 h, 3 replicates): 6034 and 5953 and 6048
ZYX gene expression, BT2 (10 μM BT2, 4 h, 3 replicates): 3059 and 3209 and 3141
ABCA4 log2Fold Change (10 μM BT2 vs vehicle, 4 h): 2.991
ACTA2 log2Fold Change (10 μM BT2 vs vehicle, 4 h): 1.228
ACTG2 log2Fold Change (10 μM BT2 vs vehicle, 4 h): 2.581
ADAT3 log2Fold Change (10 μM BT2 vs vehicle, 4 h): −1.31
ADCYAP1 log2Fold Change (10 μM BT2 vs vehicle, 4 h): 1.242
ARHGAP29 log2Fold Change (10 μM BT2 vs vehicle, 4 h): 1.497
ATF3 log2Fold Change (10 μM BT2 vs vehicle, 4 h): 1.019
BACH2 log2Fold Change (10 μM BT2 vs vehicle, 4 h): 1.126
CD248 log2Fold Change (10 μM BT2 vs vehicle, 4 h): 2.579
CREB5 log2Fold Change (10 μM BT2 vs vehicle, 4 h): 1.577
DMBT1 log2Fold Change (10 μM BT2 vs vehicle, 4 h): 1.424
DUSP8 log2Fold Change (10 μM BT2 vs vehicle, 4 h): 3.811
ENPP1 log2Fold Change (10 μM BT2 vs vehicle, 4 h): 2.594
EPAS1 log2Fold Change (10 μM BT2 vs vehicle, 4 h): 1.187
FAM166A log2Fold Change (10 μM BT2 vs vehicle, 4 h): −1.443
FERMT2 log2Fold Change (10 μM BT2 vs vehicle, 4 h): 1.127
FLNC log2Fold Change (10 μM BT2 vs vehicle, 4 h): 1.158
GBP1 log2Fold Change (10 μM BT2 vs vehicle, 4 h): 1.317
GBP2 log2Fold Change (10 μM BT2 vs vehicle, 4 h): 1.999
HIST1H2AC log2Fold Change (10 μM BT2 vs vehicle, 4 h): −1.445
HIST1H2AG log2Fold Change (10 μM BT2 vs vehicle, 4 h): −1.417
HIST2H2BE log2Fold Change (10 μM BT2 vs vehicle, 4 h): −1.273
IL2RA log2Fold Change (10 μM BT2 vs vehicle, 4 h): 2.06
JUN log2Fold Change (10 μM BT2 vs vehicle, 4 h): 2.561
JUND log2Fold Change (10 μM BT2 vs vehicle, 4 h): 1.29
KCNMB1 log2Fold Change (10 μM BT2 vs vehicle, 4 h): 1.455
MAF log2Fold Change (10 μM BT2 vs vehicle, 4 h): −1.032
MYL4 log2Fold Change (10 μM BT2 vs vehicle, 4 h): 2.052
NPAS4 log2Fold Change (10 μM BT2 vs vehicle, 4 h): 1.211
NTN1 log2Fold Change (10 μM BT2 vs vehicle, 4 h): 6.501
PRKCE log2Fold Change (10 μM BT2 vs vehicle, 4 h): 1.177
PRRT1 log2Fold Change (10 μM BT2 vs vehicle, 4 h): −1.322
SIRPB2 log2Fold Change (10 μM BT2 vs vehicle, 4 h): 1.912
SPECC1L-ADORA2A log2Fold Change (10 μM BT2 vs vehicle, 4 h): 1.096
TEAD3 log2Fold Change (10 μM BT2 vs vehicle, 4 h): 1.133
TIMP3 log2Fold Change (10 μM BT2 vs vehicle, 4 h): 1.85
TUBA1A log2Fold Change (10 μM BT2 vs vehicle, 4 h): −1.19
TUBA1B log2Fold Change (10 μM BT2 vs vehicle, 4 h): −1.394
TUBA1C log2Fold Change (10 μM BT2 vs vehicle, 4 h): −1.121
TUBA4A log2Fold Change (10 μM BT2 vs vehicle, 4 h): −1.253
TUBB2A log2Fold Change (10 μM BT2 vs vehicle, 4 h): −1.005
TUBB3 log2Fold Change (10 μM BT2 vs vehicle, 4 h): −1.262
TUBB4B log2Fold Change (10 μM BT2 vs vehicle, 4 h): −1.52
ZYX log2Fold Change (10 μM BT2 vs vehicle, 4 h): 1.537
effect on FOS like 2 expression (10 μM, 4 h): negligible effects
effect on FOSB expression (10 μM, 4 h): negligible effects
increase of DUSP8 mRNA expression (10 μM, 4 h): 14.1 fold
increase of JUND levels (10 μM, 4 h): 2.4 fold
increase of netrin-1 (NTN1) (10 μM, 4 h): 90.6 fold
inhibition of MAF expression (10 μM, 4 h): 2 fold
JUN induction (10 μM, within 4 h): 5.9 fold
